{"source": "patent US20060293323A1", "about": "“Therapeutic Combinations of erb B Kinase Inhibitors and Antineoplastic Therapies” (priority 2002, published 2006)", "key": {"[1]": {"tested_on": "Rif-1 sarcoma", "test": "Rif-1 sarcoma, CI-1033 with multiple doses of radiation", "assay_type": "in vivo, murine", "excerpt": "Radiation at 5 Gy for 5 days produced a tumor growth delay of 28.5 days. […] Data representative of this effect is provided on Table I and FIG. 2."}, "[2]": {"tested_on": "SCC-7 Murine Squamous Cell Carcinoma", "test": "SCC-7 murine squamous cell carcinoma, CI-1033 with single-dose radiation", "method": "Two studies were conducted. […] Radiation was delivered as either a single dose or as multiple fractions over a 5-day period."}, "[3]": {"tested_on": "murine colon carcinoma, C26", "test": "Subcutaneous murine colon carcinoma C26, CI-1033 and capecitabine", "assay_type": "in vivo", "details": "for optimum tumor growth delay as single agent: CI-1033 40, 20, 10 mg/kg PO, capecitabine 750, 500 mg/kg PO days 14-16, 21-23, 28-30; for tumor free survivors: single agents or combinations", "method": "(§1) On Day 0 of the test, each mouse was surgically implanted (subcutaneously) with a fragment of tumor weighing approximately 30 mg. The mice were weighed weekly, and tumor size (width and length in mm) were measured three times each week with standard calipers. Tumor mass for each animal was calculated according to the formula: [formula] where “a” is width of the tumor in mm, and “b” is the length in mm. Evaluation of anticancer activity was evaluated based on the formula T-C, where “T” and “C” are the median time (in days) required for the treated and control (respectively) tumors to reach a pre-determined size of 750 mg (the “evaluation size”). […] Standard agents were diluted as described in the package inserts and administered at various dosage levels in 0.5 mL injections.\n(§2) In each experiment, mice bearing established tumors were randomized into one of four treatment groups. One group served as control treatment groups. […] The third group was further divided into four subgroups, each of which received the designated standard agent by the route and schedules indicated below.\n(§3) Group 4 was further subdivided into groups receiving combination therapy.\nCapecitabine was administered PO at doses of 750 and 500 mg/kg on days 14-16, 21-23, and 28-30."}, "[4]": {"tested_on": "NSCLC, renal cell cancer", "test": "Clinical administration of CI-1033 alone", "assay_type": "in vivo, human", "details": "repeated courses and prolonged exposures, patients", "excerpt": "The treatment may be prolonged, with or without an off drug rest period."}, "[5]": {"tested_on": "L3.6pl human pancreatic carcinoma", "test": "Orthotopically implanted L3.6pl human pancreatic carcinoma in nude mice, CI-1033 and gemcitabine", "assay_type": "in vivo", "details": "for loss of initial body weight during therapy: once daily, 5 days per week, 4 weeks"}, "[6]": {"tested_on": "H125 human non-small cell lung cancer xenograft", "assay_type": "in vivo", "details": "CI-1033 PO days 19-23 and 26-30; docetaxel IV days 19, 23, 27", "method": "as §1, §2, §3"}, "[7]": {"tested_on": "A431 human epidermoid, LX-1 lung, A549 lung and GEO colon carcinomas", "details": "several human tumor xenografts; cited from earlier work"}, "[8]": {"tested_on": "OVCAR-5 Human Ovarian Cancer xenografts", "test": "Advanced OVCAR-5 xenografts, CI-1033 and cisplatin", "assay_type": "in vivo", "method": "One group served as control treatment groups.\nCisplatin at doses of 12, 6, 3, and 1.5 mg/kg was administered IV on days 28, 32, and 34."}, "[9]": {"test": "in vivo", "details": "female, nude, mouse, in vivo, ip", "method": "as §1, §2, §3\n(§4) Etoposide was administered IP at doses of 80, 50, and 31 mg/kg on days 12, 16 and 20."}, "[10]": {"tested_on": "H125 human non-small cell lung cancer xenograft", "test": "in vivo", "method": "as §1, §2, §3, §4"}, "[11]": {"tested_on": "MDA-MB-453 human breast carcinoma cells", "test": "Paclitaxel-induced apoptosis in vitro, paclitaxel and CI-1033 alone or in combination", "assay_type": "cell-based", "details": "3-day exposure to paclitaxel alone", "excerpt": "However, none of the inhibitors of the erbB family tyrosine kinases described above are irreversible and are pan erbB tyrosine kinase inhibitors. […] [Inoue, Clin. Cancer Res. 6:4874-84, 2000.]"}, "[12]": {"tested_on": "H125 human cell lung carcinoma xenografts", "assay_type": "in vivo", "details": "CI-1033 orally days 32-35; topotecan IP days 26-30", "method": "as §1, §2, §3"}, "[13]": {"details": "CI-1033 5 mg/kg PO D 7-18 plus X-ray 10 Gy TO D 7"}, "[14]": {"details": "CI-1033 10 mg/kg PO D 7-18, no X-ray"}, "[15]": {"details": "CI-1033 10 mg/kg PO D 7-18 plus X-ray 10 Gy TO D 7"}, "[16]": {"details": "CI-1033 20 mg/kg PO D 7-18, no X-ray"}, "[17]": {"details": "CI-1033 20 mg/kg PO D 7-18 plus X-ray 10 Gy TO D 7"}, "[18]": {"details": "CI-1033 40 mg/kg PO D 7-18, no X-ray"}, "[19]": {"details": "CI-1033 40 mg/kg PO D 7-18 plus X-ray 10 Gy TO D 7"}, "[20]": {"details": "capecitabine single agent or capecitabine 750 or 500 mg/kg with CI-1033"}}, "note": "Counter-ions that a name gives are not always drawn."}
{"smiles": "C=CC(=O)Nc1cc2c(Nc3ccc(F)c(Cl)c3)ncnc2cc1OCCCN1CCOCC1", "note": "[CI-1033, N-[4-(3-chloro-4-fluoro-phenylamino)-7-(3-morpholin-4-yl-propoxy)-quinazolin-6-yl]-acrylamide]", "values": [{"measurement": "enhancement compared to radiation alone", "setting": "[1]; 5 Gy radiation for 5 days, each 1 hour after daily CI-1033", "value": 42, "unit": "%"}, {"measurement": "tumor growth delay", "setting": "[1]; CI-1033 alone, 5-day treatment schedule", "value": 3.7, "unit": "days"}, {"measurement": "% Weight Change (maximum treatment-related weight loss)", "setting": "[2]; [13]", "value": "−15", "unit": "%"}, {"measurement": "CR (complete response)", "setting": "[2]; [13]", "value": "2/6"}, {"measurement": "T − C", "setting": "[2]; [13]", "value": 11.1, "unit": "days"}, {"measurement": "Toxic Deaths", "setting": "[2]; [13]", "value": "0/6"}, {"measurement": "% Weight Change (maximum treatment-related weight loss)", "setting": "[2]; [14]", "value": "−1", "unit": "%"}, {"measurement": "Toxic Deaths", "setting": "[2]; [14]", "value": "0/6"}, {"measurement": "T − C", "setting": "[2]; CI-1033 10 mg/kg PO D 7-18, no X-ray, evaluation size 750 mg", "value": 1.3, "unit": "days"}, {"measurement": "% Weight Change (maximum treatment-related weight loss)", "setting": "[2]; [15]", "value": "−13", "unit": "%"}, {"measurement": "PR (partial response)", "setting": "[2]; [15]", "value": "1/6"}, {"measurement": "T − C", "setting": "[2]; [15]", "value": 9.7, "unit": "days"}, {"measurement": "Toxic Deaths", "setting": "[2]; [15]", "value": "0/6"}, {"measurement": "% Weight Change (maximum treatment-related weight loss)", "setting": "[2]; [16]", "value": "−1", "unit": "%"}, {"measurement": "Toxic Deaths", "setting": "[2]; [16]", "value": "0/6"}, {"measurement": "T − C", "setting": "[2]; CI-1033 20 mg/kg PO D 7-18, no X-ray, evaluation size 750 mg", "value": 0.2, "unit": "days"}, {"measurement": "% Weight Change (maximum treatment-related weight loss)", "setting": "[2]; [17]", "value": "−15", "unit": "%"}, {"measurement": "CR (complete response)", "setting": "[2]; [17]", "value": "2/6"}, {"measurement": "PR (partial response)", "setting": "[2]; [17]", "value": "1/6"}, {"measurement": "T − C", "setting": "[2]; [17]", "value": 20.4, "unit": "days"}, {"measurement": "Toxic Deaths", "setting": "[2]; [17]", "value": "0/6"}, {"measurement": "% Weight Change (maximum treatment-related weight loss)", "setting": "[2]; [18]", "value": "−2", "unit": "%"}, {"measurement": "Toxic Deaths", "setting": "[2]; [18]", "value": "0/6"}, {"measurement": "T − C", "setting": "[2]; CI-1033 40 mg/kg PO D 7-18, no X-ray, evaluation size 750 mg", "value": 0.9, "unit": "days"}, {"measurement": "% Weight Change (maximum treatment-related weight loss)", "setting": "[2]; [19]", "value": "−14", "unit": "%"}, {"measurement": "CR (complete response)", "setting": "[2]; [19]", "value": "5/6"}, {"measurement": "T − C", "setting": "[2]; [19]", "value": 26.0, "unit": "days"}, {"measurement": "Toxic Deaths", "setting": "[2]; [19]", "value": "0/6"}, {"measurement": "enhancement of antitumor effect by combination with radiation", "setting": "[2]; single-dose radiation 1 hour after first of 12 PO doses of CI-1033", "value": 91, "unit": "%"}, {"measurement": "optimum tumor growth delay as single agent", "setting": "[3]", "value": 3.6, "unit": "days"}, {"measurement": "tumor free survivors", "setting": "[3]", "value": 0, "unit": "%"}, {"measurement": "cumulative toxicity", "setting": "[4]", "value": "no evidence of cumulative toxicity"}, {"measurement": "loss of initial body weight during therapy", "setting": "[5]; CI-1033 10 mg/kg orally", "value": 6, "unit": "%"}, {"measurement": "loss of initial body weight during therapy", "setting": "[5]; CI-1033 30 mg/kg orally", "value": 9, "unit": "%"}, {"measurement": "body weight between the end of therapy and terminal sacrifice", "setting": "[5]; CI-1033 10 and 30 mg/kg", "value": "gained weight"}, {"measurement": "optimum tumor growth delay as single agent", "setting": "[6]", "value": 11.7, "unit": "days"}]}
{"smiles": "COc1cc2ncnc(Nc3ccc(F)c(Cl)c3)c2cc1OCCCN1CCOCC1", "note": "[Iressa]", "values": [{"measurement": "therapeutic effect of combination with paclitaxel versus either agent alone", "setting": "[7]", "value": "greater therapeutic effect"}]}
{"smiles": "CCCCCOC(=O)Nc1nc(=O)n([C@@H]2O[C@H](C)[C@@H](O)[C@H]2O)cc1F", "note": "[capecitabine, 5′-deoxy-5-fluoro-N-[(pentyloxy)carbonyl]-cytidine]", "values": [{"measurement": "optimum tumor growth delay as single agent", "setting": "[3]", "value": 22.5, "unit": "days"}, {"measurement": "complete responses", "setting": "[3]; [20]", "value": "3/6"}, {"measurement": "partial responses", "setting": "[3]; [20]", "value": "2/6"}, {"measurement": "tumor free survivors", "setting": "[3]", "value": 8, "unit": "%"}]}
{"smiles": "N.N.[Cl][Pt][Cl]", "note": "[cisplatin, cis-diaminodichloroplatinum (II)]", "values": [{"measurement": "anticancer effects when administered alone", "setting": "[8]; CI-1033 PO days 28-37, cisplatin IV days 28, 32, 34", "value": "Neither cisplatin nor CI-1033 when administered alone produced meaningful anticancer effects"}, {"measurement": "tumor growth delay (T-C)", "setting": "[8]; cisplatin alone 12 mg/kg", "value": 10, "unit": "days"}]}
{"smiles": "CC(=O)O[C@@]12CO[C@@H]1C[C@H](O)[C@@]1(C)C(=O)[C@H](O)C3=C(C)[C@@H](OC(=O)[C@H](O)[C@@H](NC(=O)OC(C)(C)C)c4ccccc4)C[C@@](O)([C@@H](OC(=O)c4ccccc4)[C@H]21)C3(C)C", "note": "[docetaxel, reference compound]", "values": [{"measurement": "optimum tumor growth delay as single agent", "setting": "[6]", "value": 35.7, "unit": "days"}]}
{"smiles": "COc1cc([C@@H]2c3cc4c(cc3[C@@H](O[C@@H]3O[C@@H]5CO[C@@H](C)O[C@H]5[C@H](O)[C@H]3O)[C@H]3COC(=O)[C@H]23)OCO4)cc(OC)c1O", "note": "[etoposide, 4′-demethylepipodophyllotoxin 9-[4,6-0-(R)-ethylidene-(beta)-D-glucopyranoside]]", "values": [{"measurement": "MTD", "setting": "[9]", "value": 50, "unit": "mg/kg"}, {"measurement": "delaying the growth of H125 as a single agent", "setting": "[10]; etoposide IP days 12, 16, 20 at 50 mg/kg, CI-1033 200, 124, 77 mg/kg", "value": "relatively ineffective"}, {"measurement": "tolerability", "setting": "[10]; etoposide doses 80, 50, 31 mg/kg IP", "value": "well tolerated only at the lowest dose tested"}]}
{"smiles": "Nc1ccn([C@@H]2O[C@H](CO)[C@@H](O)C2(F)F)c(=O)n1", "note": "[gemcitabine, 2′-deoxy-2′,2′-difluoro-cytidine, reference compound]", "values": [{"measurement": "loss of initial body weight at terminal sacrifice", "setting": "[5]; gemcitabine alone 125 mg/kg twice weekly", "value": 4, "unit": "%"}, {"measurement": "body weight change over the therapy period", "setting": "[5]; gemcitabine alone 125 mg/kg twice weekly, tumor bearing nude mice", "value": "slight weight gain"}]}
{"smiles": "CC(=O)O[C@H]1C(=O)[C@@]2(C)[C@H]([C@H](OC(=O)c3ccccc3)[C@]3(O)C[C@H](OC(=O)[C@H](O)[C@@H](NC(=O)c4ccccc4)c4ccccc4)C(C)=C1C3(C)C)[C@]1(OC(C)=O)CO[C@@H]1C[C@@H]2O", "note": "[paclitaxel]", "values": [{"measurement": "cells undergoing apoptosis", "setting": "[11]", "value": 23, "unit": "%"}]}
{"smiles": "CC[C@@]1(O)C(=O)OCc2c1cc1n(c2=O)Cc2cc3c(CN(C)C)c(O)ccc3nc2-1", "note": "[topotecan, (S)-10-[(dimethylamino)methyl]-4-ethyl-4,9-dihydroxy-1H-pyrano[3′,4′:6,7]indolizino[1,2-b]quinoline-3,14-(4H,12H )-dione monohydrochloride]", "values": [{"measurement": "anticancer effectiveness measured by tumor growth delay, single agents", "setting": "[12]", "value": "meaningful anticancer effectiveness"}]}
